Assay results: patent US20120115817A1, “PHTHALIMIDE DERIVATIVES OF NON-STEROIDAL ANTI-INFLAMMATORY COMPOUNDS AND/OR TNF-ALPHA MODULATORS, METHOD FOR PRODUCING SAME, PHARMACEUTICAL COMPOSITIONS CONTAINING SAME AND USES THEREOF FOR THE TREATMENT OF INFLAMMATORY DISEASES” (EMS S.A., priority 2009, published 2012)
“Also recorded” adds a separate entry of the source.

Columns and labels:
gastric mucosa = experiment: Gastric lesion test (gastric ulcerogenesis); assay type: in vivo, rat; parameters: key to grade of gastric lesion (ulceration): ground zero for the ulceration of compounds that do not damage the gastric lining; lesions <1 mm=grade 1; 1.5 to 2.5 mm grade 2; 2.5 to 3.5 mm=grade 3; 3.5 to 4.5 mm, and grade 4; >4.5 mm=grade 5; conditions: for grade of gastric lesion (ulceration) / change in color or morphology of the gastric mucosa / lesion on the gastric lining / gastric ulceration: single dose of 100 μmol/kg; for grade of gastric lesion (ulceration): scale zero to 5
Source text: We performed the evaluation of gastric lesions caused by new anti-inflammatory derived from phthalimide of the invention and compared with standard anti-inflammatory drugs (without molecular modification). The compounds were classified according to the grade of damage caused on a scale ranging from 1-5. It was assumed that: lesions <1 mm=grade 1, 1.5 to 2.5 mm grade 2, 2.5 to 3.5 mm=grade 3, 3.5 to 4.5 mm, and grade 4=>4.5 mm=grade 5. The results obtained were reported as averages±E. P. M. All results were submitted to the variance homogeneity test (Levene's Test) to confirm homogeneity. The results with not significant p (above 0.05), were subsequently subjected to Variance Analysis (ANOVA) followed by multiple comparison test (post hoc analyses) such as the Newman-Keul's test, and only the values of p were considered when they were equal or below 0.05.
The stomachs were also evaluated on the number of lesions observed.
In order to characterize the profile of gastric lesion caused by the new anti-inflammatory derivatives of the invention the extent of the lesions caused by the administration of said anti-inflammatory agents was measured.
The gastric ulcerogenesis was verified in the same animals from the groups used for the paw's edema model.
After six hours of readings of the legs, the animals were euthanized in CO2 and had their stomachs removed, opened towards greater curvature and washed with saline.
Through the exposure of the mucosa its color and integrity were shown. In the case of the existence of lesions, these were counted and measured according to the rate of gastric ulcerogenesis (IUG), which abides by numerical criteria for the classification of gastric mucosal lesions: (lesions <1 mm=1; 1.5 to 2.5 mm=2; 2.5 to 3.5 mm=3, 3.5 to 4.5 mm=4 and >4.5 mm=5). The results obtained were reported as averages±E. P. M.

[1] = test system: abdominal contortions induced by acetic acid; experiment: Abdominal contortion test induced by acetic acid; assay type: in vivo, Swiss mice; conditions: mice, oral; for inhibitory activity of abdominal contortion: 100 μmol/kg (FIG. 8); for Average (abdominal contortions): acetic acid 0.1 N; for % of inhibition of abdominal contortions: acetic acid 0.1 N (Table 2)
Experimental: Additionally, we conducted the evaluation of possible adverse reactions of the compounds of the invention through the abdominal contortion test induced by acetic acid. […] The results are represented in FIG. 8.
The antinociceptive profile was evaluated by testing abdominal contortions induced by acetic acid in mice. In this assay, there were used Swiss mice of both sexes weighing between 21 and 28 g, fasted for a period of approximately 8 hours. The test-substance was administered orally and had as the gum Arabic at 5% as vehicle. One hour later, it was administered acetic acid at 0.1 N (0.1 mL/10 g weight) in the peritoneal cavity of the animals. Ten minutes after injection of acetic acid, the contortions were counted for 20 minutes.

[2] = test system: rat paw edema induced by carrageenan; experiment: Rat paw edema induced by carrageenan; assay type: in vivo, Wistar rat; conditions: orally; for anti-inflammatory activity compared with carrageenan-only control / anti-inflammatory activity compared with the standard NSAID: single dose of 100 μmol/kg
Experimental: The anti-inflammatory activity of new phthalmidic derivatives claimed in this patent was evaluated through the model of paw edema induced by carrageenin.
The methodology to be reported can be found in detail in Bandarage, U. K.; Chen, L.; Fang, X.; Garvey, U. S.; Glavin, A.; Janero, D. R.; Letts, L. G.; Mercer, G. J.; Saha, J. K.; Schroeder, J. D.; Shumway, M. J.; Tam, S. W. Nitrosothiol Esters of Diclofenac: Synthesis and Pharmacological Characterization of the Gastrointestinal-Sparing Prodrugs. J. Med. Chem. v. 43, p. 4005-4016, 2000.
The injection of carrageenan in Wistar rat paw causes edema and local inflammation which can be seen by the increased thickness of the rat paw. Pre-treatment with compounds that have anti-inflammatory activity decreases the edema and inflammation caused by carrageenan administration.
The compounds of this invention have been administrated one (1) hour before inoculation of the irritating agent, carrageenan in the paws of the animals with the aid of a gavage tube orally, using water as a solvent.
The monitoring of the inflammation and the anti-inflammatory activity of the compounds of the invention was made by measuring the thickness in millimeters, of the rat's paw.
The control group received sub plantar injection, in the hind paws, the irritating chemical agent, carrageenan, and saline solution, orally.
The hind paws were measured before treatment and hourly for 6 hours after administration of carrageenan, through the thickness to determine their volumes (in mm). The results were expressed as the difference between the readings of the paws before and after treatments.

[3] = test system: abdominal contortions induced by acetic acid; conditions: reports in the literature; cited from earlier work

Row | SMILES | grade of gastric lesion (ulceration) (gastric mucosa; rat) | inhibitory activity of abdominal contortion [1] | change in color or morphology of the gastric mucosa (gastric mucosa; rat) | lesion on the gastric lining / gastric ulceration (gastric mucosa; rat) | anti-inflammatory activity compared with carrageenan-only control [2] | Average (abdominal contortions) ([1]; 100 μmol/kg) | % of inhibition of abdominal contortions ([1]; 100 μmol/kg) [%] | further results
1 | Cc1ccc(-c2cc(C(F)(F)F)nn2-c2ccc(S(N)(=O)=O)cc2)cc1 [celecoxib, reference compound] | 2 (1.5 to 2.5 mm grade 2) | – | – | – | – | – | – | –
2 | COc1ccc2cc([C@H](C)C(=O)O)ccc2c1 [naproxen, reference compound] | 5 (>4.5 mm=grade 5) | about 43% | – | – | – | – | – | –
3 | COc1ccc2cc(C(C)C(=O)NN3C(=O)c4ccccc4C3=O)ccc2c1 (stereo not shown) [Example 3.3, N-(1,3-dioxy-1,3-dihydro-2H-isoindol-2-yl)-2-(6-methoxy-2-naphtyl)propanamide] | zero | around 42.5% | did not observe any—macro- and microscopically—morphological change or in the color of the stomach tissue | no lesion on the gastric lining | significant anti-inflammatory activity | 37.8 | 42.5 | anti-inflammatory activity compared with the standard NSAID [2]: superior activity compared with ibuprofen; also recorded: much greater than naproxen
4 | O=C(O)c1ccccc1O [salicylic acid, reference compound] | 5 (>4.5 mm=grade 5) | – | – | – | – | – | – | –
5 | Cc1ccc(Nc2c(F)cccc2Cl)c(CC(=O)O)c1 [lumiracoxib, reference compound] | 2 (1.5 to 2.5 mm grade 2) | – | – | – | – | – | – | –
6 | Cc1ccc(Nc2c(F)cccc2Cl)c(CC(=O)NN2C(=O)c3ccccc3C2=O)c1 [Example 6.3, 2-{2-[(2-chloro-6-fluorophenyl)amine]-5-methylphenyl}-N-(1,3-dioxy-1,3-dihydro-2H-isoindol-2-1)acetamide] | zero | – | did not observe any—macro- and microscopically—morphological change or in the color of the stomach tissue | no lesion on the gastric lining | significant anti-inflammatory activity | – | – | –
7 | O=C(Cc1ccccc1Nc1c(Cl)cccc1Cl)NN1C(=O)c2ccccc2C1=O [Example 5.3, 2-{2-[(2,6-dichlorophenyl)amino]phenyl}-N-(1,3-dioxy-1,3-dihydro-2H-isoindol-2-yl)acetamide] | zero | ~16.2% | a little change in the color of the mucosa | no lesion on the gastric lining | significant anti-inflammatory activity | 55.1 | 16.2 | anti-inflammatory activity compared with diclofenac at 120 minutes ([2]; 100 μmol/kg, time of 120 minutes): significantly higher anti-inflammatory activity than that of diclofenac; anti-inflammatory activity compared with diclofenac at 240 and 360 minutes ([2]; 100 μmol/kg, times 240 and 360 minutes): same activity profile is kept; anti-inflammatory activity compared with the standard NSAID [2]: significant anti-inflammatory activity when compared to positive control (carrageenan), and to diclofenac
8 | O=C(O)Cc1ccccc1Nc1c(Cl)cccc1Cl [diclofenac, reference compound] | 5 (>4.5 mm=grade 5) | – | – | – | – | – | – | analgesic activity in this model according to the literature [3]: do not have analgesic activity
9 | CC(C)Cc1ccc(C(C)C(=O)O)cc1 (stereo not shown) [ibuprofen, reference compound] | 5 (>4.5 mm=grade 5) | – | – | – | – | – | – | –
10 | O=C(NN1C(=O)c2ccccc2C1=O)c1ccccc1O [Example 1.3, N-(1,3-dioxy-1,3-dihydro-2H-isoindol-2-yl)-2-hydroxybenzamide] | 1 (lesions <1 mm=grade 1) | around 17.2% | – | – | significant anti-inflammatory activity | 54.5 | 17.2 | total area of lesions (gastric mucosa; observed in six stomachs, 100 μmol/kg): 2.9 mm^2; size of microlesions on the stomach lining (gastric mucosa; rat, 100 μmol/kg): less than 1 mm; analgesic activity ([1]; 100 μmol/kg): showed no analgesic activity
11 | CC(C(=O)NN1C(=O)c2ccccc2C1=O)c1cccc(C(=O)c2ccccc2)c1 (stereo not shown) [Example 4.3, 2-(3-benzoylphenyl)-N-(1,3-dioxy-1,3-dihydro-2H-isoindol-2-yl)propanamide] | – | ~37.9% | – | – | – | 40.8 | 37.9 | –
12 | CC(C)Cc1ccc(C(C)C(=O)NN2C(=O)c3ccccc3C2=O)cc1 (stereo not shown) [Example 2.3, N-(1,3-dioxy-1,3-dihydro-2H-isoindol-2-yl)-2-(4-isobutylphenyl)propanamide] | zero | – | a little change in color of the mucosa | no lesion on the gastric lining | significant anti-inflammatory activity | – | – | anti-inflammatory activity compared with the standard NSAID [2]: superior activity compared with ibuprofen
